In one experiment the target is T1, NBD1 (Homo sapiens, UniProt P13569).
T1 construct: Purified recombinant NBD1 was produced using previously described methods; made in house
Kind of experiment: Aggregation analysis using differential static light scattering (DSLS), thermal stability of NBD1 (ΔTagg). The settings on record: ΔTagg versus DMSO control, NBD1 0.2 mg/ml. It counts as binding. The gist of the method: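 Purified recombinant NBD1 at 0.2 mg/ml in Tris buffer pH7.6 with 2 mM ATP, 5 mM MgCl2, 2 mM DTT and 1% glycerol was mixed with DMSO-dissolved compounds under mineral oil. Plates were heated at 1° C. per minute to 70° C., light scattering imaged every 0.5° C.; Tagg from curve inflection, minus DMSO-control mean.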

A further experiment concerns the target T2, CFTR (Homo sapiens, UniProt P13569, DEL508-508).
T2 construct: Primary human bronchial epithelial cells from a ΔF508 homozygous CF donor; host or cells: primary human bronchial epithelial cells (CF-HBE), ΔF508 homozygous donor
Briefly: TECC24 AUC fold over DMSO @10 μM, CFTR-mediated transepithelial chloride transport in CF-HBE cells. It counts as cell-based. The settings on record: test agent AUC divided by DMSO vehicle AUC, primary CF-HBE cells, ΔF508 homozygous donor, 48 hours incubation. The essentials: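 Primary ΔF508-homozygous CF bronchial epithelial cells on inserts were incubated 48 h at 36.5 °C with compound in IL-13-containing medium. VT and TEER were then recorded in current-clamp mode (pH 7.4 HEPES bath) with benzamil 10 μM, forskolin 10 μM, then CFTR inhibitor-172 20 μM. The IEQ AUC between forskolin and inhibitor was divided by vehicle AUC.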

T2 sequence (P13569 with tags, fused parts or gaps DEL508-508): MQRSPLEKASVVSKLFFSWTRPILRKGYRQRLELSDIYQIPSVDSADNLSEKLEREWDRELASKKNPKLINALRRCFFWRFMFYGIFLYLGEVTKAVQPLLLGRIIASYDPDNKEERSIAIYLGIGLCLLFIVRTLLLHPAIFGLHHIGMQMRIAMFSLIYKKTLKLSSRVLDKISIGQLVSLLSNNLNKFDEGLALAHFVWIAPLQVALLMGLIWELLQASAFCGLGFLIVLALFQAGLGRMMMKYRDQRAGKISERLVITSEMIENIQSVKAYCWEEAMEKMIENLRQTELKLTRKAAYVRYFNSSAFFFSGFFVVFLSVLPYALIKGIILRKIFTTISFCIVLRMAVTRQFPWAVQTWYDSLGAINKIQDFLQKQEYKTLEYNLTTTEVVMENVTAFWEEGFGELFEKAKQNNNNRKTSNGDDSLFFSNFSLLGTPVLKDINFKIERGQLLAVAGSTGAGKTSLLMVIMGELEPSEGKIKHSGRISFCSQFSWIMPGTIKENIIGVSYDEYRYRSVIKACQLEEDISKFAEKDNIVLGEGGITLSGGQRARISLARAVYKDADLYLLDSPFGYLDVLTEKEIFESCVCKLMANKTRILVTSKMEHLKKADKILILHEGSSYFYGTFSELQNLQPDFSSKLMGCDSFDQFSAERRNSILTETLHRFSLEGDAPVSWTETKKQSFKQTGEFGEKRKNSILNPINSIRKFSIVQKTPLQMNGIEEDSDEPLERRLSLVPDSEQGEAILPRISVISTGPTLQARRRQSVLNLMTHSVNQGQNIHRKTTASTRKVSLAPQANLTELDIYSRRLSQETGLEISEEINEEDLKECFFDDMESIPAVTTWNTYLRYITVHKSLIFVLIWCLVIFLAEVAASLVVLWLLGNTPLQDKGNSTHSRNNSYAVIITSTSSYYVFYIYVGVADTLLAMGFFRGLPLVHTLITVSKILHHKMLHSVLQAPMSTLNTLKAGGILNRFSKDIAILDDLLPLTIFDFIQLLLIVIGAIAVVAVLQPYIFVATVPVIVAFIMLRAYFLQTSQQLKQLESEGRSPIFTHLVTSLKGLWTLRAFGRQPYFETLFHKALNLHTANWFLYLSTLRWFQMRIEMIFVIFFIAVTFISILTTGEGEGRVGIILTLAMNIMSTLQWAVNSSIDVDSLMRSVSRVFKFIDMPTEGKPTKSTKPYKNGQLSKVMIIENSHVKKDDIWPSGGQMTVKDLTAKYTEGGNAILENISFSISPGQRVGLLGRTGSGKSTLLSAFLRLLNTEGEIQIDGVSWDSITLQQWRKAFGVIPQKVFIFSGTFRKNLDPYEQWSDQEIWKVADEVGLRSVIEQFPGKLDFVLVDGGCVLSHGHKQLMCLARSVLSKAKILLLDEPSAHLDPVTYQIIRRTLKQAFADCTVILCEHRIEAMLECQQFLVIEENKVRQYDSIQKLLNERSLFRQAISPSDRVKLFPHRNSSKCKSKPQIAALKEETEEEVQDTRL
T1 sequence (P13569 423-646 limits assumed): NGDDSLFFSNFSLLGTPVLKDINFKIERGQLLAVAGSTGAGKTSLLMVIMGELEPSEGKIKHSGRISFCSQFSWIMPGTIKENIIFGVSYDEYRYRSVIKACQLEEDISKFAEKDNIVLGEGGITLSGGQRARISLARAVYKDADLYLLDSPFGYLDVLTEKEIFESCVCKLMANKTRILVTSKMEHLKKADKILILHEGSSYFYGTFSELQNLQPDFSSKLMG

In the case of `CC(Cc1cccc(C2(C)CCOC(C)(C)CS(=O)(=O)CCc3c(c(F)cc4[nH]ccc34)Oc3ccc(F)c(c3)-c3nc2nn3C)c1)C(=O)O` (single isomer, unassigned) [Compound 28A, 3-[3-(22,28-difluoro-3,6,10,10-tetramethyl-12,12-dioxo-9,24-dioxa-12lambda6-thia-3,4,19,30-tetrazapentacyclo[23.3.1.12,5.015,23.016,20]triaconta-1(29),2(30),4,15,17,20,22,25,27-nonaen-6-yl)phenyl]-2-methyl-propanoic Acid], the “DSLS 3D (100 μM ΔT)” value on NBD1 is “C (a value greater than 10 °C and less than or equal to 25 °C is marked “C”)”. Further, the “TECC (AUC, 10 μM)” value on CFTR is “C (a value between 20 and 80 is marked “C”)”.

As for `Cn1nc2nc1-c1cc(ccc1F)Sc1c(F)cc3[nH]ccc3c1CCS(=O)(=O)CC(C)(C)CCC[C@]2(C)c1cccc(C[C@H](O)CO)c1` [Compound 287, (2S)-3-[3-[(6R)-22,28-difluoro-3,6,10,10-tetramethyl-12,12-dioxo-12λ6,24-dithia-3,4,19,30-tetrazapentacyclo[23.3.1.12,5.015,23.016,20]triaconta-1(29),2(30),4,15,17,20,22,25,27-nonaen-6-yl]phenyl]propane-1,2-diol], the “DSLS 3D (100 μM ΔT)” value at NBD1 was “C (a value greater than 10 °C and less than or equal to 25 °C is marked “C”)”. Besides, the “TECC (AUC, 10 μM)” value at CFTR is “C (a value between 20 and 80 is marked “C”)”.

On to `C[C@H](Cc1cccc([C@@]2(C)CCCC(C)(C)CS(=O)(=O)CCc3c(c(F)cc4[nH]ccc34)[S+]([O-])c3ccc(F)c(c3)-c3nc2nn3C)c1)C(=O)O` (single isomer, unassigned) [Compound 206A], for which, on NBD1, the “DSLS 3D (100 μM ΔT)” value was “C (a value greater than 10 °C and less than or equal to 25 °C is marked “C”)”. Moreover, the “TECC (AUC, 10 μM)” value at CFTR is “C (a value between 20 and 80 is marked “C”)”.

With `C[C@@H](Cc1cccc([C@@]2(C)CCCC(C)(C)CS(=O)(=O)CCc3c(c(F)cc4[nH]ccc34)C(=O)c3ccnc(c3)-c3nc2nn3C)c1)C(=O)O` (mixture of isomers) [Compound 254, (2S)-2-Methyl-3-[3-[rac-(6R)-22-fluoro-3,6,10,10-tetramethyl-12,12,24-trioxo-12λ6-thia-3,4,19,28,30-pentazapentacyclo[23.3.1.12,5.015,23.016,20]triaconta-1(29),2(30),4,15,17,20,22,25,27-nonaen-6-yl]phenyl]propanoic Acid], at NBD1, the “DSLS 3D (100 μM ΔT)” value is “C (a value greater than 10 °C and less than or equal to 25 °C is marked “C”)”. Also, the “TECC (AUC, 10 μM)” value at CFTR is given as “B (a value between 12-20 is marked “B”)”.

In the case of `Cn1nc2nc1-c1cc(ccc1F)Oc1c(F)cc3[nH]ccc3c1CCS(=O)(=O)CC(C)(C)OCCC2(C#N)c1cccc(CC2(C(=O)O)CC2)c1` (single isomer, unassigned) [Compound 123B, 1-[[3-(6-cyano-22,28-difluoro-3,10,10-trimethyl-12,12-dioxo-9,24-dioxa-12λ6-thia-3,4,19,30-tetrazapentacyclo[23.3.1.12,5.015,23.016,20]triaconta-1(29),2(30),4,15,17,20,22,25,27-nonaen-6-yl)phenyl]methyl]cyclopropanecarboxylic Acid], the “DSLS 3D (100 μM ΔT)” value at NBD1 is “C (a value greater than 10 °C and less than or equal to 25 °C is marked “C”)”. The “TECC (AUC, 10 μM)” value on CFTR is reported as “A (a TECC value less than 12 is marked “A”)”.

As for `COC(=O)[C@H](C)Cc1cccc([C@@]2(C)CCCC(C)(C)CS(=O)(=O)CCc3c(c(F)cc4[nH]ccc34)Oc3cnnc(c3)-c3nc2nn3C)c1` [Compound 265, Methyl (2R)-3-[3-[(6R)-22-fluoro-3,6,10,10-tetramethyl-12,12-dioxo-24-oxa-12λ6-thia-3,4,19,27,28,30-hexazapentacyclo[23.3.1.12,5.015,23.016,20]triaconta-1(29),2(30),4,15,17,20,22,25,27-nonaen-6-yl]phenyl]-2-methyl-propanoate], the “DSLS 3D (100 μM ΔT)” value at NBD1 was “B (a value above 5 °C and less than or equal to 10 °C is marked “B”)”. Besides, the “TECC (AUC, 10 μM)” value on CFTR is “C (a value between 20 and 80 is marked “C”)”.

As for `[2H]C([2H])([2H])C1(c2cccc(C[C@H](C)C(=O)O)c2)CCCC2(COC2)CS(=O)(=O)CCc2c(c(F)cc3[nH]ccc23)Oc2ccc(F)c(c2)-c2nc1nn2C` (single isomer, unassigned) [Compound 130B], at NBD1, the “DSLS 3D (100 μM ΔT)” value is “C (a value greater than 10 °C and less than or equal to 25 °C is marked “C”)”. The “TECC (AUC, 10 μM)” value on CFTR is “C (a value between 20 and 80 is marked “C”)”.

Regarding `CC(Oc1cccc(C2(C)CCCC(C)(C)CS(=O)(=O)CCc3c(c(F)cc4[nH]ccc34)Oc3ccc(F)c(c3)-c3nc2nn3C)c1)C(=O)O` (single isomer, unassigned) [Compound 19A, 2-[3-[22,28-difluoro-3,6,10,10-tetramethyl-12,12-dioxo-24-oxa-12 6-thia-3,4,19,30-tetrazapentacyclo[23.3.1.12,5.015,23.016,20]triaconta-1(29),2(30),4,15,17,20,22,25,27-nonaen-6-yl]phenoxy]propanoic Acid], the “DSLS 3D (100 μM ΔT)” value at NBD1 was “C (a value greater than 10 °C and less than or equal to 25 °C is marked “C”)”. Also, at CFTR, the “TECC (AUC, 10 μM)” value is “C (a value between 20 and 80 is marked “C”)”.

For `[2H]C([2H])([2H])C1(c2cccc(CCC(=O)O)c2)CCCC(C([2H])([2H])[2H])(C([2H])([2H])[2H])CS(=O)(=O)CCc2c(c(F)cc3[nH]ccc23)Oc2ccc(F)c(c2)-c2nc1nn2C` (single isomer, unassigned) [Compound 98B, 3-[3-[22,28-difluoro-3-methyl-12,12-dioxo-6,10,10-tris(trideuteriomethyl)-24-oxa-12lambda6-thia-3,4,19,30-tetrazapentacyclo-[23.3.1.12,5.015,23.016,20]triaconta-1(29),2(30),4,15,17,20,22,25,27-nonaen-6-yl]phenyl]propanoic acid], the “DSLS 3D (100 μM ΔT)” value on NBD1 was “C (a value greater than 10 °C and less than or equal to 25 °C is marked “C”)”. Also, on CFTR, the “TECC (AUC, 10 μM)” value was “C (a value between 20 and 80 is marked “C”)”.

As to `[2H]C([2H])([2H])C1(c2cccc(CCC(=O)O)c2)CCCC(C)(C)CS(=O)(=O)CCc2c(c(F)cc3[nH]ccc23)Oc2ccc(F)c(c2)-c2nc1nn2C` (single isomer, unassigned) [Compound 96B, 3-[3-[22,28-difluoro-3,10,10-trimethyl-12,12-dioxo-6-(trideuteriomethyl)-24-oxa-12lambda6-thia-3,4,19,30-tetrazapentacyclo-[23.3.1.12,5.015,23.016,20]triaconta-1(29),2(30),4,15,17,20,22,25,27-nonaen-6-yl]phenyl]propanoic Acid], the “DSLS 3D (100 μM ΔT)” value at NBD1 is “A (an ΔTagg value less than or equal to 5 °C is marked “A”)”. For the same compound, the “TECC (AUC, 10 μM)” value on CFTR is “A (a TECC value less than 12 is marked “A”)”.

`CC1(C)CS(=O)(=O)CCc2c(c(F)cc3[nH]ccc23)Oc2ccc(F)c(c2)-c2ccn(n2)C(c2cccc(CCC(=O)O)c2)CCO1` (single isomer, unassigned) [Compound 87B, 3-[3-(22,28-difluoro-10,10-dimethyl-12,12-dioxo-9,24-dioxa-12lambda6-thia-5,19,30-triazapentacyclo[23.3.1.12,5.015,23.016,20]-triaconta-1(29),2(30),3,15,17,20,22,25,27-nonaen-6-yl)phenyl]propanoic acid]: the “DSLS 3D (100 μM ΔT)” value at NBD1 was “C (a value greater than 10 °C and less than or equal to 25 °C is marked “C”)”. Moreover, on CFTR, the “TECC (AUC, 10 μM)” value is “A (a TECC value less than 12 is marked “A”)”.

Regarding `Cn1nc2nc1-c1cc(ccn1)Oc1c(F)cc3[nH]ccc3c1CCS(=O)(=O)CC(C)(C)CCC[C@]2(C)c1cccc(CC2(C(=O)O)CC2)c1` [Compound 290, 1-[[3-[(6R)-22-fluoro-3,6,10,10-tetramethyl-12,12-dioxo-24-oxa-12λ6-thia-3,4,19,28,30-pentazapentacyclo[23.3.1.12,5.015,23.016,20]triaconta-1(29),2(30),4,15,17,20,22,25,27-nonaen-6-yl]phenyl]methyl]cyclopropanecarboxylic Acid], on NBD1, the “DSLS 3D (100 μM ΔT)” value was “C (a value greater than 10 °C and less than or equal to 25 °C is marked “C”)”. For the same compound, the “TECC (AUC, 10 μM)” value on CFTR was “C (a value between 20 and 80 is marked “C”)”.

For `Cn1nc2nc1-c1cc(ccc1F)Oc1c(F)cc3[nH]ccc3c1CCS(=O)(=O)CC(C)(C)CCC[C@]2(C)c1cccc(CC(C)(C)C(=O)O)c1` [Compound 289, 3-[3-[(6R)-22,28-difluoro-3,6,10,10-tetramethyl-12,12-dioxo-24-oxa-12λ6-thia-3,4,19,30-tetrazapentacyclo[23.3.1.12,5.015,23.016,20]triaconta-1(29),2(30),4,15,17,20,22,25,27-nonaen-6-yl]phenyl]-2,2-dimethyl-propanoic Acid], the “DSLS 3D (100 μM ΔT)” value at NBD1 was “C (a value greater than 10 °C and less than or equal to 25 °C is marked “C”)”. Also, the “TECC (AUC, 10 μM)” value on CFTR was “C (a value between 20 and 80 is marked “C”)”.

Regarding `Cn1nc2nc1-c1cc(ccc1F)Oc1c(F)cc3[nH]ccc3c1CCS(=O)(=O)CC(C)(C)CCCC2(C)c1cccc(/C=C2\CCOC2=O)c1` (stereo not shown) [Compound 172, (3E)-3-[[3-(22,28-Difluoro-3,6,10,10-tetramethyl-12,12-dioxo-24-oxa-12λ6-thia-3,4,19,30-tetrazapentacyclo[23.3.1.12,5.015,23.016,20]triaconta-1(29),2(30),4,15,17,20,22,25,27-nonaen-6-yl)phenyl]methylene]tetrahydrofuran-2-one], the “DSLS 3D (100 μM ΔT)” value on NBD1 is “B (a value above 5 °C and less than or equal to 10 °C is marked “B”)”. The “TECC (AUC, 10 μM)” value at CFTR is listed as “A (a TECC value less than 12 is marked “A”)”.

These data come from patent US12649750B2, “Macrocyclic compounds, compositions, and methods of using thereof” (Sionna Therapeutics Inc., priority 2022, dated 2026).
